The values that follow are results of earlier work, collected in EP4119941A1, “HEMOGLOBIN ASSAY METHOD” (Sekisui Medical Co., Ltd., priority 2020, dated 2021).

For this series the following is noted: at 25°C.

As to `O=S(=O)(O)CCNC(CO)(CO)CO` [TES, N-tris(hydroxymethyl)methyl-2-aminoethanesulfonic acid], the pKa was 7.55.
